Data published in a melting point compilation (Tetko et al.; mined from patent text by program, amines drawn as free bases though some values may be those of a salt).

Compound	melting point [°C]
CC1(c2ccccc2)SC(=Nc2ccc(Cl)cc2)N(Nc2ccccc2)C1=O (stereo not drawn)	53 to 54
O=C(O)/C=C/c1ccc(OCc2cccnc2)cc1	228 to 230
CCOC(=O)C1CCN(c2cc(-c3ccc(Cl)cc3)nc3ccccc23)CC1	124 to 126
CN1CCN(C(=O)[C@H](CCC(N)=O)NC(=O)CCc2ccc(OCc3ccccc3)cc2OCc2ccccc2)CC1	120 to 122
CCOC(=O)CCCCCn1c(=O)[nH]c2ccccc2c1=O	103 to 104
CCc1ccc2c(c1)[C@@H](N1CCCC1=O)[C@H](O)C(C)(C)O2 (relative stereo)	154 to 163
COc1nccnc1C1(O)CN2CCC1CC2 (stereo not drawn)	130 to 131
CC(C)Cn1c(CN)c(-c2ccccc2)c2cc(SCC(N)=O)ccc2c1=O	218 to 220
CCOC(=O)c1ncc2[nH]c3ccc(Oc4ccc(OC)cc4)cc3c2c1COC	154
O=C1CCC(c2ccc(F)cc2)c2ccccc2N1 (stereo not drawn)	209 to 212
CCCCCC[C@H](C)COC(=O)c1ccc(-c2ccc(O)cc2)cc1	89
Cc1cc(NC(=O)C2(C)CC2)ccc1OC(C)C	99 to 101
O=C1NCc2c(-c3ccccc3)cccc2N1c1ccccc1	234 to 235
COCCNC(=O)c1ccc(C(=O)C=C(c2cc(Cl)cc(Cl)c2)C(F)(F)F)cc1	150 to 153
Cc1cc(SCc2cccc3cn(-c4ccc(C(F)(F)F)cc4)nc23)ccc1OCC(=O)O	79 to 81
C#Cc1ccc(C(O)(Cn2cncn2)C(C)(C)C)cc1 (stereo not drawn)	101
Nc1ccc2c(c1)OCCNC2=O	151 to 152
COc1cccn2c(=O)c(CCN3CCc4oc5ccccc5c4C3)c(C)nc12	151
COc1c2c(cc3c1OCO3)C(=O)CN(C)C2	116 to 119

Compound	melting point [°C]
O=C(CCc1ccccc1)N[C@H](Cc1ccc(C(F)(F)F)cc1)[C@@H](O)c1ccc(Cl)nc1 (racemic)	149 to 150
CCN1CCN(CC)c2cc(Nc3nc(Cl)ncc3Cl)ccc2C1	69 to 73
COc1ccc(CN(Cc2ccc(OC)cc2)c2nc(Cl)c3ncn(Cc4ccc(OC)cc4)c3n2)cc1	157 to 159
Cc1ccc(C2=CC(O)CN(C)C2)cc1 (stereo not drawn)	67 to 69
CC1=Nc2c(C)nn(C)c2C2=NC(C)CN12 (stereo not drawn)	169 to 172
O=C1c2ccccc2OCN1CCO[N+](=O)[O-]	49 to 51
CNC(=S)C1(c2ccccc2)CCCCC1=O (stereo not drawn)	86
O=C(O)c1cccc(-c2cccc(Oc3cccc(Cl)c3Cl)n2)c1	216 to 217
Cc1ccccc1Cn1c(OCc2ccccc2)noc1=O	77 to 78
NS(=O)(=O)c1ccc(-n2nc(C(F)(F)F)cc2-c2ccc(-c3ncco3)cc2)cc1	215 to 217
COc1ccc(NC(=O)C(F)(F)F)cc1C12CC3CC(CC(C3)C1)C2	166 to 167
CCOC(=O)c1ncn2c1CN(C)C(=O)c1cc(C(F)(F)F)ccc1-2	179 to 180
CNC#CCC1=Cc2ccccc2Sc2ccc(Cl)cc21	92 to 94
Cc1cc(-c2cccc(-c3ccc(OCC(=O)O)c4c3CCCC4)n2)c(C)[nH]1	199 to 206
Cc1nn(-c2c(Cl)cc(C(F)(F)F)cc2Cl)nc1C(=O)O	185 to 186
CCOC(=O)CN1CCN(Cc2cnc(-c3cc4cccc(N(C)S(=O)(=O)c5cccs5)c4[nH]3)s2)CC1	167 to 169
O=C(NCc1cccc2ccccc12)NC1CCN(S(=O)(=O)c2ccccc2C(F)(F)F)C1 (stereo not drawn)	117 to 119
CCc1[nH]n(C2CCCC2)c2nc(-c3cccc(OCC(=O)N4CCOCC4)c3)nc(=O)c1-2	212 to 213
COc1cc(NC(C)=O)cc(OC)c1-c1ccc(C[C@H](NC(=O)c2c(Cl)cccc2Cl)C(=O)O)cc1	243 to 244

Compound	melting point [°C]
COc1ccn(-c2nc(C)c(C(=O)NCc3ccccc3)s2)c(=O)c1	205 to 208
CCOC(=O)CCc1nnc(-c2nccs2)c2cc(OC)ccc12	153 to 154
Cc1oc2ccc(N)cc2c1C	77 to 78
Cc1nc(N2CCN(CC3CC3(F)F)C2=O)sc1-c1cc[nH]n1 (stereo not drawn)	227 to 230
Cc1c(Br)nc2n1CCc1ccccc1C2=C1CCN(C)CC1	116
O=C1COc2ccc(CCCCCCc3ccc4c(c3)NC(=O)CO4)cc2N1	219 to 225
N#Cc1c(-c2ccccc2)c(Cl)n2c1CNCC2	128 to 130
CCOC(=O)c1cccc(-c2ccc3cc[nH]c3c2)c1	120 to 121
Cc1cc(N2C=CNC2N)ccn1 (stereo not drawn)	167
COc1ccc(C(=O)Nc2ccc(Cl)c(Cl)c2)cc1NCc1cccc(F)c1	153 to 155
N#Cc1cc(C(F)(F)F)[nH]c1-c1ccc(Cl)c(Cl)c1	230 to 232
CN(C)CCCOc1ccnc2cc([N+](=O)[O-])ccc12	146 to 149
C=C1CCc2[nH]c3c(c2C1=O)CCC3	214 to 215
CC(C)OC(=O)c1cc(-n2c(=O)c(F)c(C(F)(F)F)n(C)c2=O)c(F)cc1Cl	66 to 68
COc1ccc(Nc2nc(N)c3[nH]c(C)cc3n2)cc1	161 to 163
Cc1cc(C(=O)O)c(C)c2c1S(=O)(=O)CCC2(C)C	209
O=C(OCc1ccncc1)c1cc2c(=O)n(Cc3ccccc3)c(=O)[nH]c2s1	248 to 250
Nc1ccc(Sc2ccccc2)nc1N	119 to 122

Further lines, results first:

melting point [°C]	Compound
298 to 300	CC1(N)CN(c2c(F)cc3c(=O)c(C(=O)O)cn(C4CC4)c3c2F)C1
182	CCC(=O)Nc1ccc(OCc2nc3ccccc3s2)cc1
133 to 134	CC(O)Cc1ccc2oc(=O)[nH]c2c1 (stereo not drawn)
113 to 115	O=C(CC(=O)C1CC1)c1cnc2ccccc2n1
171 to 173	O=C(O)CCCCCOc1c(Cl)cc(NC(=O)NC(=O)c2ccccc2Cl)cc1Cl
196 to 199	Cc1cccc(Nc2cc(Nc3ccc(OCCO)cc3)ncn2)c1
130 to 132	COc1ccc2cc(-c3cnccn3)ccc2n1
42.5	COC(=O)CCCC(=O)c1ccco1
187 to 189	CCOC(=O)NCc1cccc2c1C(=O)N(C1CCC(=O)NC1=O)C2=O (stereo not drawn)
83 to 84	CCCn1c(=O)cc(Cl)n(CC#N)c1=O
228 to 230	CC(C)Sc1sc(-c2nnn[nH]2)c2c1C(=O)CC(C)(C)C2
159 to 163	CCCCN(c1nc(N2CCOCC2)nc(N(CCCC)C2CC(C)(C)N(OC3CCCCC3)C(C)(C)C2)n1)C1CC(C)(C)N(OC2CCCCC2)C(C)(C)C1
228 to 229	CCOC(=O)c1cc(-c2ccc(C#N)cc2)[nH]c1N
171	CC(C)(C)C1CCCC(=Cc2ccc(Cl)cc2)C1(O)Cn1cncn1 (stereo not drawn)
146	COCCC(=O)N[C@H]1CC[C@H](CCN2CCN(c3nccc4ccoc34)CC2)CC1
246 to 247	O=C(Cc1c(-c2ccccc2)c2cc(O)c(Cl)cc2oc1=O)Nc1ccc(Cl)cc1C(F)(F)F
160 to 161	Cc1nc(Sc2ccc(N)cc2)nc(C)c1Cl
80 to 82	COCC(=O)N(c1c(C)ccc(Cl)c1C)C1CCOC1=O (stereo not drawn)
134 to 135	C=CCN(c1ccccc1)c1ncc(C(C)C(=O)O)s1 (stereo not drawn)
31 to 32	COCCCCCCCCCCC(=O)O
196	OC1CSC(Oc2cncc(-c3ccc(N4CCCCC4)cc3)c2)C(O)C1O (stereo not drawn)
133 to 134	CCOc1cnc(C)c(S(=O)(=O)c2ccc(OCc3ccccc3)cc2)c1
122 to 124	COc1ccc(C(O)(c2ccccc2)c2ccc(OC)cc2)cc1
110 to 112	CCCCCCCN(CCCCCSc1nc(-c2ccc(O)cc2)c(-c2ccc(O)cc2)[nH]1)C(=O)Nc1ccc(F)cc1F

melting point [°C]	Compound
173 to 174	CCOC(=O)c1c(-c2ccccc2Cl)c2cc(C(C)C)ccc2[nH]c1=O
171 to 173	NC(=O)/C=C1\CCc2c(F)cc(Cl)cc21
120 to 122	CC(=O)OC1CSC(Oc2cc(Br)cnc2F)C(OC(C)=O)C1OC(C)=O (stereo not drawn)
117 to 119	Clc1ccc2c(c1)Oc1ccccc1C=C2CBr
141 to 143	COc1ccc2c(c1)CCC1C2CCC2(C)C(NCCc3cccn3C)CCC12 (stereo not drawn)
109 to 110	C=C(c1ccccc1)c1ccc(N)c(N)c1
35	CCCCCCCCCCCCCCCOC(=O)c1cccnc1
129	CCOC(=O)C1=C(C)N(CCOC(=O)c2ccccc2)C(=O)NC1c1ccccc1 (stereo not drawn)
107 to 110	CCc1nc2c(cnn2CC)c(NC2CCOCC2)c1CNC(=O)c1cc(C)cc(C(=O)NCc2ccc(F)c(-c3cccc(C=O)c3)c2)c1
112 to 114	O=C(CCN1CCN(c2cnc3ccccc3c2)CC1)c1csc2ccccc12
> 270	Oc1cc2cc3c(ccc4cc(O)c(O)cc43)nc2cc1O
87 to 90	Brc1ccc2c(c1)CCOC2CCN1CCN(c2ccc(OCc3ccccc3)cc2)CC1 (stereo not drawn)
132 to 133	COc1cc(OC)nc(C(C)c2ccccc2NS(=O)(=O)C(F)(F)F)n1 (stereo not drawn)
98 to 99	CC(C)(C)OC(=O)NCC(=O)c1cccnc1
159 to 160	CN1CCCc2ccc(NC(=O)c3cc4cc(F)ccc4n3Cc3cccc(F)c3)cc21
142 to 144	CC(O)C(Oc1ccc(NC(=O)NC(=O)c2ccccc2Cl)cc1)c1ccccc1 (stereo not drawn)
> 250	O=C1CCCC2=C1C(c1cc(Br)cs1)C1=C(CCS1)N2 (stereo not drawn)
131 to 132	COC(=O)NNC(=S)Cc1cccc(C(F)(F)F)c1
186 to 187	COC(=O)c1c(C(=O)OC)c2sc3ccccc3n2c1-c1ccc(F)cc1
145	Cc1nc2ncnn2c(N2CCC(C)CC2)c1C1CCCC1
189 to 192	CCOC(=O)c1cn(-c2cnsn2)c2cc(F)c(F)cc2c1=O
197	CC#CCOc1ccc(S(=O)(=O)C2(C(=O)O)CCOCC2)cc1
97 to 98	CS(=O)(=O)OCCCc1ccc(SCc2coc(/C=C/c3ccccc3)n2)cc1
